target: T1, Ba/F3 Axl (Homo sapiens, UniProt P30530); experiment: Proliferation suppression rate using mouse pro-B cell line (Ba/F3 Axl) stably expressing Axl; format: cell-based; settings: Ba/F3 Axl cells, 48 hours, CellTiter-Glo; read-out: IC50 value, proliferation suppression of Ba/F3 Axl
T1 sequence (P30530 1-894): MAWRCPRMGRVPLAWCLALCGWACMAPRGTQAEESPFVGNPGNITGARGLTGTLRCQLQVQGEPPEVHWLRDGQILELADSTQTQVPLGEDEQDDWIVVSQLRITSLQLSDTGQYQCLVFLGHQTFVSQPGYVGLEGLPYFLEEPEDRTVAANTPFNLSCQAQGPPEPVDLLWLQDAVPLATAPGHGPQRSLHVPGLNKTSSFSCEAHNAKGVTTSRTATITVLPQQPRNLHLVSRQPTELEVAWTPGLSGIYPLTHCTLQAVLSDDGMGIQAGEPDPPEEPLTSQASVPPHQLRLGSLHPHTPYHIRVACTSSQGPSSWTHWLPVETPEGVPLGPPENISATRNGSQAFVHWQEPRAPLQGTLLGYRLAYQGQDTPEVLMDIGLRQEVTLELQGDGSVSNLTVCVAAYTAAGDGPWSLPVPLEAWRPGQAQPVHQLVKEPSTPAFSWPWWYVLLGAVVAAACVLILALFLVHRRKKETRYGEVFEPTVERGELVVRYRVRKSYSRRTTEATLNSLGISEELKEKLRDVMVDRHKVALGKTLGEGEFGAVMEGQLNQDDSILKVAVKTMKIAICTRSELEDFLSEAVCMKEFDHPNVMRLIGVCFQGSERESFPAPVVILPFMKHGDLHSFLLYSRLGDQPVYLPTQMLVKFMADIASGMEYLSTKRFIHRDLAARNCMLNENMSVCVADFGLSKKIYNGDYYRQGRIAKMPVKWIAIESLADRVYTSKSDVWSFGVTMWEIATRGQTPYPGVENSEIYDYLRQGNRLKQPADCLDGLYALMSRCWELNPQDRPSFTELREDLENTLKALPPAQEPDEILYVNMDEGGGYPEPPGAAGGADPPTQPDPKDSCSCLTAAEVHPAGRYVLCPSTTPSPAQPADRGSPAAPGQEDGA
Experimental: Biological Example 2: Measurement of Proliferation Suppression Rate by Using Mouse Pro-B Cell Line (Ba/F3 Axl) Stably Expressing Axl
A 0.1 mmol/L DMSO solution of the test compound was dispensed into a 96-well plate, and a 3-fold dilution series was prepared using DMSO. DMSO solutions of test compounds, having various concentrations, were further 500-fold diluted with a RPMI1640 medium (containing 10% HI-FBS, 1% penicillin) and a diluted solution of the test compound having […] with respect to the final concentration was prepared. In each well of the 96-well plate (BD Biosciences) for measurement, 50 μL of a RPMI medium was added to the Blank group, 50 μL of a RPMI medium containing 0.2% DMSO was added to the medium group, and 50 μL of the diluted solution of the test compound was added to the test compound group, respectively. Ba/F3 Axl was diluted with a medium to have a density of 2×10^5 cells/mL to prepare a cell suspension. In each well of the 96-well plate for measurement, 50 μL each of the RPMI medium was added to the Blank group, and 50 μL each of the cell suspension to the medium group and the test compound group, respectively, and the groups were stood still at 37° C. at 5% CO2 for 48 hours. After standing still, Relative Light Unit (RLU) was measured by using CELLTITER-GLO (registered trademark) LUMINESCENT CELL VIABILITY ASSAY (Promega). The measurement was carried out according to the attached instruction. To each well, 100 μL each of light-emitting solution was added. The plate was stirred at room temperature for 3 min and then stool still at room temperature with light shielded for 10 min, and RLU was measured by using Microplate Reader (SpectraMax M5e, Molecular Devices). The average values of RLU of the Blank group and the medium group were respectively calculated, and the proliferation suppression rate of the test compound group was calculated. Proliferation suppression rate (%)={1−(RLU of test compound group−A)/(B−A)}×100 [Math. 2] A: average value of RLU of Blank group B: average value of RLU of medium group
A value of 50% inhibition rate (IC50 value) of the test compound was calculated from the inhibition curve based on the inhibition rate in each concentration of the test compound.

GI50 | SMILES
1.2 nM | O=C1CCCc2c1cc(C(=O)Nc1ccc(Oc3ccnc4cc(OCCCN5CCOCC5)ccc34)cn1)c(=O)n2-c1ccccc1 [Example 17(2), N-[5-({7-[3-(4-morpholinyl)propoxy]-4-quinolinyl}oxy)-2-pyridinyl]2,5-dioxo-1-phenyl-1,2,5,6,7,8-hexahydro-3-quinolinecarboxamide]
0.8 nM | COc1cc2nccc(Oc3ccc(NC(=O)c4cc5c(n(-c6ccccc6)c4=O)CC(C)(C)CC5=O)nc3)c2cc1OC [Example 5(1), N-{5-[(6,7-dimethoxy-4-quinolinyl)oxy]-2-pyridinyl}-7,7-dimethyl-2,5-dioxo-1-phenyl-1,2,5,6,7,8-hexahydro-3-quinolinecarboxamide]
1.2 nM | COc1cc2nccc(Oc3ccc(NC(=O)c4cc5c(n(-c6ccccc6)c4=O)CCCC5=O)c(C)c3)c2cc1OC [Example 23(2), N-{4-[(6,7-dimethoxy-4-quinolinyl)oxy]-2-methylphenyl}-2,5-dioxo-1-phenyl-1,2,5,6,7,8-hexahydro-3-quinolinecarboxamide]

SMILES | GI50
COc1cc2nccc(Oc3ccc(NC(=O)c4cc5c(n(-c6ccccc6)c4=O)CCCC5=O)nc3)c2cc1OC [Example 5, N-{5-[(6,7-dimethoxy-4-quinolinyl)oxy]-2-pyridinyl}-2,5-dioxo-1-phenyl-1,2,5,6,7,8-hexahydro-3-quinolinecarboxamide] | 0.7 nM
